# System: KRAS patient-derived spheroids with HUVEC/MSC, viability
# Test: Anticancer human tumor 323965-272-R-J2-PDC patient-derived pancreatic carcinoma cell line growth inhibition [KRAS2]
# Details: second compound 0.316 µM; first compound 0.1 µM; stronger effect = lower value
# From the text: Multicellular complex tumor spheroid response to RAS pathway inhibitors in combination with a targeted agents in patient-derived cell lines with oncogenic KRAS variants from multiple cancer types
# A high-throughput screen of multi-cell type tumor spheroids was designed to identify active combinations of targeted small molecules and KRAS pathway inhibitors. Complex spheroids include a stromal component modeled by human endothelial cells (HUVEC) and fibroblasts modeled by human mesenchymal stem cells (MSCs). The concentration ranges selected for each drug and investigational agent were based upon clinically achievable concentrations if the clinical Cmax of the agent was known.
# Compounds. The drugs and investigational agents: BI-3406 (NSC825286), BAY-293 (NSC824723), batoprotafib (TNO155; NSC825523), sotorasib (AMG 510; NSC818433), MRTX1257 (NSC819558), elimusertib (BAY 1895344; NSC800525), molibresib (GSK525762; NSC774829), temuterkib (LY3214996; NSC803410), venetoclax (NSC766270), alisertib (NSC759677), olaparib (NSC753686), talazoparib (NSC767125), erdafitinib (NSC781556), ipatasertib (NSC767898), cabozantinib (NSC761068), nintedanib (NSC756659), abemaciclib (NSC768073), docetaxel (NSC628503), trametinib (NSC758246), and sapanisertib (NSC764658) were obtained from the National Cancer Institute (NCI) Developmental Therapeutics Program Chemical Repository. The FDA-approved anticancer drug set is available from the Developmental Therapeutics Program. […] The stock solutions were prepared in dimethyl sulfoxide (DMSO, Sigma-Aldrich, St. Louis, MO, cat. D2650) at 800-fold the tested concentration and stored at -70 degrees C prior to their use. All drugs and investigational agents were tested over a range starting from a high concentration at or near the clinical Cmax and decreasing in half-log increments. If the clinical Cmax for an agent had not been determined, the highest concentration tested was 10 microM.
# Cell Culture. All cells were maintained in an incubator at 37 degrees C and 5% CO2 with 95% humidity. The PDC lines were cultured according to standard operating procedures established by the NCI PDMR (https://pdmr.cancer.gov/sops/default.htm). Briefly, all PDCs were thawed and cultured in Matrigel-coated flasks prepared with a working solution of 1X Ham's F-12 nutrient mix, without supplementation (Invitrogen, Waltham, MA, cat. 11765054), 100 U/mL penicillin-streptomycin (Invitrogen, cat. 15140122), and 2.5% Matrigel (Corning Inc., Corning, NY, cat. 354248) for the first three passages. All PDCs were cultured in complete DMEM/F-12 media containing advanced DMEM/F-12 (Invitrogen, cat. 12634028), 4.9% defined fetal bovine serum, heat inactivated (HyClone Laboratories Inc., Logan, UT, cat. SH30070.03HI), 389 ng/mL hydrocortisone (Sigma-Aldrich, cat. H4001), 9.7 ng/mL human EGF recombinant protein (Invitrogen, cat. PHG0313), 23.4 microg/mL adenine (Sigma-Aldrich, cat. A2786), 97.3 U/mL penicillin-streptomycin (Invitrogen, cat. 15140122), 1.9 mM L-glutamine (Invitrogen, cat. 25030081), and 9.7 microM Y-27632 dihydrochloride (Tocris Bioscience, Bristol, United Kingdom, cat. 1254). The PDCs were cultured in complete DMEM/F12 media without 9.7 microM Y-27632 dihydrochloride for at least two passages prior to the screen. The established cell line HOP-62 was cultured in RPMI 1640 medium, HEPES (Invitrogen, cat. 22400105) with 10% defined fetal bovine serum (HyClone Laboratories Inc., cat. SH30070.03) and 2 mM L-glutamine (Invitrogen, cat. 25030081). The pooled donor HUVEC were cultured in endothelial cell growth medium 2 (PromoCell, Heidelberg, Germany, cat. C-22011) and the hMSC were cultured in mesenchymal stem cell growth medium 2 (PromoCell, cat. C-28009). For all experiments, HUVEC and hMSC were used at passages </=5, while the malignant cell lines were used at passages </=15. […]
# 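Note: spheroids exposed to agents for 7 days; 100% = DMSO vehicle control viability.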
row,SMILES,"viability, T/C"
1,Cn1nccc1Nc1nccc(-c2cc3c(s2)C(C)(C)N(CCN2CCOCC2)C3=O)n1 + C=CC(=O)N1CCN(c2nc(=O)n(-c3c(C)ccnc3C(C)C)c3nc(-c4c(O)cccc4F)c(F)cc23)C(C)C1,48%

# Same assay, conditions: second compound 0.316 µM; first compound 0.316 µM; stronger effect = lower value
row,SMILES,"viability, T/C"
1,CC1COCCN1c1cc(-c2ccnn2C)c2ccnc(-c3ccn[nH]3)c2n1 (stereo not drawn) + C=CC(=O)N1CCN(c2nc(=O)n(-c3c(C)ccnc3C(C)C)c3nc(-c4c(O)cccc4F)c(F)cc23)C(C)C1,14.4%
2,CC1OCC2(CCN(c3cnc(Sc4ccnc(N)c4Cl)c(N)n3)CC2)C1N (stereo not drawn) + C=CC(=O)N1CCN(c2nc(=O)n(-c3c(C)ccnc3C(C)C)c3nc(-c4c(O)cccc4F)c(F)cc23)C(C)C1,22.5%
3,CCNC(=O)CC1N=C(c2ccc(Cl)cc2)c2cc(OC)ccc2-n2c(C)nnc21 (stereo not drawn) + C=CC(=O)N1CCN(c2nc(=O)n(-c3c(C)ccnc3C(C)C)c3nc(-c4c(O)cccc4F)c(F)cc23)C(C)C1,40%
4,Cn1nccc1Nc1nccc(-c2cc3c(s2)C(C)(C)N(CCN2CCOCC2)C3=O)n1 + C=CC(=O)N1CCN(c2nc(=O)n(-c3c(C)ccnc3C(C)C)c3nc(-c4c(O)cccc4F)c(F)cc23)C(C)C1,41.8%

# Same assay, conditions: second compound 0.316 µM; first compound 1 µM; stronger effect = lower value
row,SMILES,"viability, T/C"
1,CC1COCCN1c1cc(-c2ccnn2C)c2ccnc(-c3ccn[nH]3)c2n1 (stereo not drawn) + C=CC(=O)N1CCN(c2nc(=O)n(-c3c(C)ccnc3C(C)C)c3nc(-c4c(O)cccc4F)c(F)cc23)C(C)C1,16.1%
2,CC1OCC2(CCN(c3cnc(Sc4ccnc(N)c4Cl)c(N)n3)CC2)C1N (stereo not drawn) + C=CC(=O)N1CCN(c2nc(=O)n(-c3c(C)ccnc3C(C)C)c3nc(-c4c(O)cccc4F)c(F)cc23)C(C)C1,19%
3,CCNC(=O)CC1N=C(c2ccc(Cl)cc2)c2cc(OC)ccc2-n2c(C)nnc21 (stereo not drawn) + C=CC(=O)N1CCN(c2nc(=O)n(-c3c(C)ccnc3C(C)C)c3nc(-c4c(O)cccc4F)c(F)cc23)C(C)C1,31%
4,Cn1nccc1Nc1nccc(-c2cc3c(s2)C(C)(C)N(CCN2CCOCC2)C3=O)n1 + C=CC(=O)N1CCN(c2nc(=O)n(-c3c(C)ccnc3C(C)C)c3nc(-c4c(O)cccc4F)c(F)cc23)C(C)C1,46.1%

# Same assay, conditions: second compound 0.316 µM; first compound 3.16 µM; stronger effect = lower value
row,SMILES,"viability, T/C"
1,CC1COCCN1c1cc(-c2ccnn2C)c2ccnc(-c3ccn[nH]3)c2n1 (stereo not drawn) + C=CC(=O)N1CCN(c2nc(=O)n(-c3c(C)ccnc3C(C)C)c3nc(-c4c(O)cccc4F)c(F)cc23)C(C)C1,12.6%
2,CC1OCC2(CCN(c3cnc(Sc4ccnc(N)c4Cl)c(N)n3)CC2)C1N (stereo not drawn) + C=CC(=O)N1CCN(c2nc(=O)n(-c3c(C)ccnc3C(C)C)c3nc(-c4c(O)cccc4F)c(F)cc23)C(C)C1,10.7%
3,CCNC(=O)CC1N=C(c2ccc(Cl)cc2)c2cc(OC)ccc2-n2c(C)nnc21 (stereo not drawn) + C=CC(=O)N1CCN(c2nc(=O)n(-c3c(C)ccnc3C(C)C)c3nc(-c4c(O)cccc4F)c(F)cc23)C(C)C1,28.6%
4,Cn1nccc1Nc1nccc(-c2cc3c(s2)C(C)(C)N(CCN2CCOCC2)C3=O)n1 + C=CC(=O)N1CCN(c2nc(=O)n(-c3c(C)ccnc3C(C)C)c3nc(-c4c(O)cccc4F)c(F)cc23)C(C)C1,40%

# Same assay, conditions: second compound 0.316 µM; first compound 10 µM; stronger effect = lower value
row,SMILES,"viability, T/C"
1,CC1OCC2(CCN(c3cnc(Sc4ccnc(N)c4Cl)c(N)n3)CC2)C1N (stereo not drawn) + C=CC(=O)N1CCN(c2nc(=O)n(-c3c(C)ccnc3C(C)C)c3nc(-c4c(O)cccc4F)c(F)cc23)C(C)C1,11.6%
2,CCNC(=O)CC1N=C(c2ccc(Cl)cc2)c2cc(OC)ccc2-n2c(C)nnc21 (stereo not drawn) + C=CC(=O)N1CCN(c2nc(=O)n(-c3c(C)ccnc3C(C)C)c3nc(-c4c(O)cccc4F)c(F)cc23)C(C)C1,25.7%
3,Cn1nccc1Nc1nccc(-c2cc3c(s2)C(C)(C)N(CCN2CCOCC2)C3=O)n1 + C=CC(=O)N1CCN(c2nc(=O)n(-c3c(C)ccnc3C(C)C)c3nc(-c4c(O)cccc4F)c(F)cc23)C(C)C1,42.4%

# Same assay, conditions: second compound 1 µM; first compound 0.01 µM; stronger effect = lower value
row,SMILES,"viability, T/C"
1,CC1COCCN1c1cc(-c2ccnn2C)c2ccnc(-c3ccn[nH]3)c2n1 (stereo not drawn) + C=CC(=O)N1CCN(c2nc(=O)n(-c3c(C)ccnc3C(C)C)c3nc(-c4c(O)cccc4F)c(F)cc23)C(C)C1,54.1%

# Same assay, conditions: second compound 1 µM; first compound 0.0316 µM; stronger effect = lower value
row,SMILES,"viability, T/C"
1,CC1COCCN1c1cc(-c2ccnn2C)c2ccnc(-c3ccn[nH]3)c2n1 (stereo not drawn) + C=CC(=O)N1CCN(c2nc(=O)n(-c3c(C)ccnc3C(C)C)c3nc(-c4c(O)cccc4F)c(F)cc23)C(C)C1,28%
